Test results published in PubChem BioAssay AID1963983 (Molecular Pharmacology Branch, DTP, NCI, 2024).

Test system: 186277-243-T-J2-PDC multi-cell spheroid viability
Experiment: Anticancer human tumor 186277-243-T-J2-PDC patient-derived colon adenocarcinoma cell line growth inhibition [PI3K]
Conditions: for IC50: curve of first compound; for viability, T/C: stronger effect = lower value; active means viability on the fitted dose curve at most 10% of control; inactive means the rest
Method in brief: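 Targeted small molecules plus PI3K inhibitors, half-log dose series from Cmax (default top 10 microM), were applied to heterotypic spheroids of cancer cells with HUVEC and MSCs. Viability indicated growth inhibition.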

[1] = second compound 0.00316 µM, first compound 0.0316 µM
[2] = second compound 0.00316 µM, first compound 0.1 µM
[3] = second compound 0.00316 µM, first compound 0.316 µM
[4] = second compound 0.00316 µM, first compound 1 µM
[5] = second compound 0.00316 µM, first compound 3.16 µM
[6] = second compound 0.00316 µM, first compound 10 µM
[7] = second compound 0.01 µM, first compound 0.0316 µM
[8] = second compound 0.01 µM, first compound 0.1 µM
[9] = second compound 0.01 µM, first compound 0.316 µM
[10] = second compound 0.01 µM, first compound 1 µM
[11] = second compound 0.01 µM, first compound 3.16 µM
[12] = second compound 0.01 µM, first compound 10 µM
[13] = second compound 0.0316 µM, first compound 0.0316 µM
[14] = second compound 0.0316 µM, first compound 0.1 µM
[15] = second compound 0.0316 µM, first compound 0.316 µM
[16] = second compound 0.0316 µM, first compound 1 µM
[17] = second compound 0.0316 µM, first compound 3.16 µM
[18] = second compound 0.0316 µM, first compound 10 µM
[19] = second compound 0.1 µM, first compound 0.0316 µM
[20] = second compound 0.1 µM, first compound 0.1 µM
[21] = second compound 0.1 µM, first compound 0.316 µM
[22] = second compound 0.1 µM, first compound 1 µM
[23] = second compound 0.1 µM, first compound 3.16 µM
[24] = second compound 0.1 µM, first compound 10 µM
[25] = second compound 0.316 µM, first compound 0.0316 µM
[26] = second compound 0.316 µM, first compound 0.1 µM
[27] = second compound 0.316 µM, first compound 0.316 µM
[28] = second compound 0.316 µM, first compound 1 µM
[29] = second compound 0.316 µM, first compound 3.16 µM
[30] = second compound 0.316 µM, first compound 10 µM
[31] = second compound 1 µM, first compound 0.0316 µM
[32] = second compound 1 µM, first compound 0.1 µM
[33] = second compound 1 µM, first compound 0.316 µM
[34] = second compound 1 µM, first compound 1 µM
[35] = second compound 1 µM, first compound 3.16 µM
[36] = second compound 1 µM, first compound 10 µM
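Further: spheroids exposed to compounds for seven days before viability reading.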
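Wherever viability, T/C is given: 100% = DMSO vehicle control viability.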

C#Cc1c(F)ccc2cc(O)cc(-c3ncc4c(N5CC6CCC(C5)N6)nc(OCC56CCCN5CC(F)C6)nc4c3F)c12 (centres undefined) + CC(Nc1ccc2c(c1)OCCn1cc(N3C(=O)OCC3C(F)F)nc1-2)C(N)=O
inactive: viability, T/C [1] 73.4% | viability, T/C [2] 31.6% | viability, T/C [3] 16.4% | viability, T/C [4] 16.3% | viability, T/C [5] 12.6% | viability, T/C [6] 8.99% | viability, T/C [7] 72.2% | viability, T/C [8] 31.1% | viability, T/C [9] 15.8% | viability, T/C [10] 11.8% | viability, T/C [11] 14% | viability, T/C [12] 9.85% | viability, T/C [13] 48.9% | viability, T/C [14] 23.6% | viability, T/C [15] 13.1% | viability, T/C [16] 14.6% | viability, T/C [19] 24.8% | viability, T/C [20] 9.05% | viability, T/C [25] 10.9% | viability, T/C [31] 15.1%
60.3 nM: IC50 (second compound 0.00316 µM)
active: viability, T/C [17] 7.53% | viability, T/C [18] 7.66% | viability, T/C [21] 12.4% | viability, T/C [22] 7.52% | viability, T/C [23] 6.59% | viability, T/C [24] 4.7% | viability, T/C [26] 7.34% | viability, T/C [27] 4.32% | viability, T/C [28] 4.02% | viability, T/C [29] 4.87% | viability, T/C [30] 2.61% | viability, T/C [32] 8.27% | viability, T/C [33] 6.04% | viability, T/C [34] 3.18% | viability, T/C [35] 3.45% | viability, T/C [36] 1.57%
58.9 nM: IC50 (second compound 0.01 µM)
< 31.6 nM: IC50 (second compound 0.0316 µM) | IC50 (second compound 0.1 µM) | IC50 (second compound 0.316 µM) | IC50 (second compound 1 µM)

C=CC(=O)N1CCN(c2nc(=O)n(-c3c(C)ccnc3C(C)C)c3nc(-c4c(O)cccc4F)c(F)cc23)C(C)C1 (centres undefined) + CC(Nc1ccc2c(c1)OCCn1cc(N3C(=O)OCC3C(F)F)nc1-2)C(N)=O
> 10000 nM: IC50 (second compound 0.00316 µM) | IC50 (second compound 0.01 µM) | IC50 (second compound 0.0316 µM) | IC50 (second compound 0.1 µM)
4990 nM: IC50 (second compound 0.316 µM)
inactive: viability, T/C [1] 109% | viability, T/C [2] 88.5% | viability, T/C [3] 94.7% | viability, T/C [4] 94.9% | viability, T/C [5] 109% | viability, T/C [6] 93.9% | viability, T/C [7] 103% | viability, T/C [8] 99.4% | viability, T/C [9] 107% | viability, T/C [10] 101% | viability, T/C [11] 103% | viability, T/C [12] 102% | viability, T/C [13] 104% | viability, T/C [14] 102% | viability, T/C [15] 105% | viability, T/C [16] 112% | viability, T/C [17] 115% | viability, T/C [18] 87.2% | viability, T/C [19] 103% | viability, T/C [20] 107% | viability, T/C [21] 88.3% | viability, T/C [22] 94.4% | viability, T/C [23] 86.6% | viability, T/C [24] 74.4% | viability, T/C [25] 82.2% | viability, T/C [26] 74.8% | viability, T/C [27] 67.7% | viability, T/C [28] 74.7% | viability, T/C [29] 56.9% | viability, T/C [30] 37.4% | viability, T/C [31] 48.2% | viability, T/C [32] 50.1% | viability, T/C [33] 50.9% | viability, T/C [34] 48.1% | viability, T/C [35] 32.8% | viability, T/C [36] 22.9%
< 31.6 nM: IC50 (second compound 1 µM)
